# Read-outs that look alike come from different tables or passages of the source.
# Legend:
# Type in all cases: cell-based, human
# [1] = tested on: p-ERK in MIA PaCa2 cells (Kras G12C mutation); experiment: Cell p-ERK detection experiment (HTRF) in MIA PaCa2 cells; conditions: compound 2 hours
# Description: MIA PaCa2 was a human pancreatic cancer cell line with Kras G12C mutation, cultured in 10% FBS+2.5% Horse serum DMEM medium. The cells in the logarithmic growth phase were taken, digested with enzyme EDTA, collected, counted and 2.5E4 cells were seeded in a 96-well cell culture plate, cultured overnight. DMSO was used to prepare 1000× compound 3.16-fold gradient concentration stock solution, and medium was used to dilute 200-fold to 5× compound stock solution. On the second day after cell seeding, 5× compound stock solution was added to each cell culture well, the final concentration was 1×, and DMSO content was 0.1%. DMSO was used as an experimental control (control). After the compound was added and cultured for two hours, the remaining medium was removed. 50 ul cell lysis buffer was added to each well, mixed and incubated for 30 minutes, then 16 ul of the mixture was transferred to a 96-well plate with a non-transparent white bottom, and 16 ul cell lysis buffer was added to blank wells. After the completion of the transfer, 4 ul p-ERK HTRF antibody mixture was added to each well, incubated for 4 hours and the fluorescence value was read. The compound inhibition rate IR (%)=(RLU control-RLU compound)/(RLU control-RLU blank)×100% was calculated, Prism 8 four-parameter method was used to fit the compound's gradient dilution concentration and the corresponding cell proliferation inhibition rate, and the IC50 value was calculate.
# [2] = tested on: A549 cells (Kras G12S mutation); experiment: Cell proliferation inhibition experiment, 3D model, CellTiter-Glo (A549); conditions: A549, 3D sphere plate, 5 days, 2% FBS
# Summary of the method: (§1)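 Luminescent ATP read-out (CellTiter-Glo) after 5-day compound treatment gave % inhibition relative to DMSO control and medium blank, fitted four-parameter for IC50. Spheroids were formed overnight in 2% FBS medium from 800 H358 or 400 A549 cells per well; dilutions were 3.16-fold, final DMSO 0.1%.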
# [3] = tested on: NCI-H358 cells (Kras G12C mutation); experiment: Cell proliferation inhibition experiment, 3D model, CellTiter-Glo (NCI-H358); conditions: NCI-H358, 3D sphere plate, 5 days, 2% FBS
# Summary of the method: as §1
# [4] = tested on: MIA PaCa-2 cells (Kras G12C mutation); experiment: Cell proliferation inhibition experiment, 3D model, CellTiter-Glo (MIA PaCa-2); conditions: MIA PaCa-2, 3D sphere plate, 5 days, read-out: MIA-PaCa2 IC50
# Summary of the method: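 3D spheroid model: 200 MIA PaCa-2 cells per well cultured overnight, then treated with a 3.16-fold compound dilution series (0.1% DMSO) for 5 days. Viability read by CellTiter-Glo luminescence. Inhibition rate normalised to DMSO and medium-blank controls; IC50 from four-parameter fit.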
# [5] = Homo sapiens, MIA PaCa-2, 120 h
IC50 [1] [nM],IC50 [2] [nM],IC50 [3] [nM],IC50 [4] [nM],"IC50 ([1]; Homo sapiens, MIA PaCa-2, 2 h) [nM]","IC50 ([2]; Homo sapiens, A549, 120 h) [nM]","IC50 ([3]; Homo sapiens, NCI-H358, 120 h) [nM]","IC50 [4, 5] [nM]",Structure (SMILES)
–,–,–,–,50,> 10000,1,8,C=CC(=O)N1CCN2c3nc(=O)n(-c4c(C)ccnc4C(C)C)c4nc(-c5cccc(Cl)c5F)c(Cl)c(c34)OC[C@@H]2C1 [Compound Z61]
–,–,–,–,39,> 10000,3,7,C=CC(=O)N1CCN2c3nc(=O)n(-c4c(C)ccnc4C(C)C)c4nc(-c5ccccc5C(F)(F)F)c(Cl)c(c34)OC[C@@H]2C1 [Compound Z66]
–,–,–,–,105,> 10000,13,22,C=CC(=O)N1CCN2c3nc(=O)n(-c4c(C)ccnc4C(C)C)c4nc(-c5ccccc5F)c(F)c(c34)OC[C@@H]2C1 [Compound Z84]
–,–,–,–,21,> 10000,3,6,C=CC(=O)N1CCN2c3nc(=O)n(-c4c(C)ccnc4C(C)C)c4nc(-c5c(F)cccc5Cl)c(Cl)c(c34)OC[C@@H]2C1 [Compound Z67]
–,–,–,–,101,> 10000,13,24,C=CC(=O)N1CCN2c3nc(=O)n(-c4c(C)ccnc4C(C)C)c4nc(-c5c(C)ccc6[nH]ncc56)c(Cl)c(c34)OC[C@H]2C1 [Compound Z86]
–,–,–,–,193,27700,17,85,C=CC(=O)N1CCN2c3nc(=O)n(-c4c(C#N)cnn4C(C)(C)C)c4nc(-c5c(O)cccc5F)c(Cl)c(c34)OC[C@H]2C1 [Compound Z120]
–,–,–,–,12,> 10000,2,3,C=CC(=O)N1CCN2c3nc(=O)n(-c4c(C5CC5)ncnc4C4CC4)c4nc(-c5c(O)cccc5F)c(F)c(c34)OC[C@H]2C1 [Compound Z99]
–,–,–,–,49,> 30000,9,17,C=CC(=O)N1CCN2c3nc(=O)n(-c4c(C)ncnc4C4CC4)c4nc(-c5c(O)cccc5F)c(F)c(c34)OC[C@H]2C1 [Compound Z108]
–,–,–,–,31,18700,5,21,C=CC(=O)N1CCN2c3nc(=O)n(-c4c(C)nc(OC)nc4C(C)C)c4nc(-c5c(O)cccc5F)c(F)c(c34)OC[C@H]2C1 [Compound Z115]
–,–,–,–,47,> 30000,4,7,C=CC(=O)N1CCN2c3nc(=O)n(-c4c(OC)ncnc4C(C)C)c4nc(-c5c(O)cccc5F)c(F)c(c34)OC[C@H]2C1 [Compound Z111]
–,–,–,–,26,8890,3,26,C=CC(=O)N1CCN2c3nc(=O)n(-c4c(C)nc(OC)nc4C(C)C)c4nc(-c5ccccc5F)c(Cl)c(c34)OC[C@H]2C1 [Compound Z116]
–,–,–,–,43,14700,4,11,C=CC(=O)N1CCN2c3nc(=O)n(-c4c(OC)ncnc4C(C)C)c4nc(-c5ccccc5F)c(Cl)c(c34)OC[C@H]2C1 [Compound Z110]
22,–,2,–,–,> 10000,–,3,C=CC(=O)N1CCN2c3nc(=O)n(-c4c(C)ccnc4C(C)C)c4nc(-c5c(O)cccc5F)c(F)c(c34)OC[C@H]2C1 [Compound Z73]
–,–,–,–,45,> 10000,4,6,C=CC(=O)N1CCN2c3nc(=O)n(-c4c(C)ccnc4C(C)C)c4nc(-c5ccccc5Cl)c(F)c(c34)OC[C@H]2C1 [Compound Z79]
–,–,–,–,59,7900,12,113,C=CC(=O)N1CCN2c3nc(=O)n(-c4c(C)c(Cl)nn4C(C)C)c4nc(-c5ccccc5F)c(Cl)c(c34)OC[C@H]2C1 [Compound Z119]
–,–,–,–,39,4630,8,74,C=CC(=O)N1CCN2c3nc(=O)n(-c4c(Cl)cncc4C(C)C)c4nc(-c5ccccc5F)c(Cl)c(c34)OC[C@H]2C1 [Compound Z114]
–,–,–,–,48,> 10000,4,10,C=CC(=O)N1CCN2c3nc(=O)n(-c4c(C)ccnc4C(C)C)c4nc(-c5c(O)ccc(F)c5F)c(Cl)c(c34)OC[C@@H]2C1 [Compound Z53]

# The next lines start with the compound.
Structure (SMILES),IC50 [1] [nM],IC50 [2] [nM],IC50 [3] [nM],IC50 [4] [nM],"IC50 ([1]; Homo sapiens, MIA PaCa-2, 2 h) [nM]","IC50 ([2]; Homo sapiens, A549, 120 h) [nM]","IC50 ([3]; Homo sapiens, NCI-H358, 120 h) [nM]","IC50 [4, 5] [nM]"
"C=CC(=O)N1CCN2c3nc(=O)n(-c4c(C)ccnc4C4CC4)c4nc(-c5c(O)cccc5F)c(F)c(c34)OC[C@H]2C1 (single isomer, unassigned) [Compound Z112-2]",502,> 30000,94,126,–,–,–,–
C=CC(=O)N1CCN2c3nc(=O)n(-c4nccnc4C(C)C)c4nc(-c5c(O)cccc5F)c(Cl)c(c34)OC[C@H]2C1 [Compound Z105-2],20,> 30000,5,–,–,–,–,11
"C=CC(=O)N1CCN2c3nc(=O)n(-c4c(C)ccnc4C(C)C)c4nc(-c5ccccc5F)c(Cl)c(c34)OC[C@H]2C1 (single isomer, unassigned) [Compound Z87-2]",9,5560,1,–,–,–,–,2
"C=CC(=O)N1CCN2c3nc(=O)n(-c4c(C)ncnc4C(C)C)c4nc(-c5cccc(F)c5F)c(Cl)c(c34)OC[C@H]2C1 (single isomer, unassigned) [Compound Z96-2]",7,> 10000,2,–,–,–,–,2
C=CC(=O)N1CCN2c3nc(=O)n(-c4nccnc4C(C)C)c4nc(-c5c(O)cccc5F)c(F)c(c34)OC[C@H]2C1 [Compound Z107-2],35,> 30000,7,–,–,–,–,19
"C=CC(=O)N1CCN2c3nc(=O)n(-c4c(OC)ncnc4C(C)C)c4nc(-c5c(O)cccc5F)c(F)c(c34)OC[C@H]2C1 (single isomer, unassigned) [Compound Z111-2]",–,–,–,–,34,> 30000,3,13
"C=CC(=O)N1CCN2c3nc(=O)n(-c4c(C)ccnc4C(C)C)c4nc(-c5c(O)cccc5F)c(Cl)c(c34)OC[C@@H]2C1 (single isomer, unassigned) [Compound Z24-2]",25,> 10000,3,8,–,–,–,–
"C=CC(=O)N1CCN2c3nc(=O)n(-c4c(C)ncnc4C(C)C)c4nc(-c5ccccc5F)c(Cl)c(c34)OC[C@H]2C1 (single isomer, unassigned) [Compound Z95-2]",5,> 10000,1,–,–,–,–,1
"C=CC(=O)N1CCN2c3nc(=O)n(-c4c(C)ccnc4C4CC4)c4nc(-c5c(O)cccc5F)c(F)c(c34)OC[C@H]2C1 (single isomer, unassigned) [Compound Z112-1]",24,–,3,4,–,> 30000,–,–
"C=CC(=O)N1CCN2c3nc(=O)n(-c4c(C)ccnc4C(C)C)c4nc(-c5ccccc5F)c(Cl)c(c34)OC[C@@H]2C1 (single isomer, unassigned) [Compound Z46-2]",–,5480,3,–,20,–,–,8
"C=CC(=O)N1CCN2c3nc(=O)n(-c4c(C)ccnc4C(C)C)c4nc(-c5ccc(F)cc5F)c(Cl)c(c34)OC[C@H]2C1 (single isomer, unassigned) [Compound Z76-2]",8,> 10000,1,–,–,–,–,2

# Reference: patent publication US20220251109A1, “OXAAZAQUINAZOLINE-7(8H)-KETONE COMPOUND, PREPARATION METHOD THEREFOR AND PHARMACEUTICAL APPLICATION THEREOF” (GENFLEET THERAPEUTICS (SHANGHAI) INC., priority 2019, published 2022)
